For 22 compounds, IC50 and inhibition results are on record in ChEMBL document CHEMBL3600352, “Design, synthesis and biological evaluation of isoquinoline-based derivatives as novel histone deacetylase inhibitors” (Bioorg Med Chem, 2015).

In one data set the target is Histone deacetylase 1 (Homo sapiens, UniProt Q13547). The experiment in a line: Inhibition of recombinant His6-tagged GST-fused human HDAC1 expressed in baculovirus infected insect High5 cells using Ac-Lys-Tyr-Lys(epsilon-acetyl)-AMC as substrate after 24 hrs.
Histone deacetylase 1, sequence (Q13547 whole entry, the tested form may be a part): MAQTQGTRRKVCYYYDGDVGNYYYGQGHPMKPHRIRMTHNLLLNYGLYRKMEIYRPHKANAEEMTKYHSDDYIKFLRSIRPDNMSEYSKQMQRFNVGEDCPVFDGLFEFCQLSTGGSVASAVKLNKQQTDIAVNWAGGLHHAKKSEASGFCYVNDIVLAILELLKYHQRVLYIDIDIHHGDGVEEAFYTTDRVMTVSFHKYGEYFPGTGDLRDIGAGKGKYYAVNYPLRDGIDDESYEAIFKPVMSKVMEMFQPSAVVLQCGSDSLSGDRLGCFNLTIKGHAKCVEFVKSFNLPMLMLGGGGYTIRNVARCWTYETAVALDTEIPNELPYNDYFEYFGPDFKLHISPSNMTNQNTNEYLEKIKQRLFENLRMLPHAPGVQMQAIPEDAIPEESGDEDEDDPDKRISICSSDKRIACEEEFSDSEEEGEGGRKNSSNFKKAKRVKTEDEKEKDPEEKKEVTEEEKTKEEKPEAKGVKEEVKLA
A further data set deals with Histone deacetylase 3 (Homo sapiens, UniProt O15379). The experiment in a line: Inhibition of recombinant His6-tagged GST-fused human HDAC3 expressed in baculovirus infected insect High5 cells using Ac-Lys-Tyr-Lys(epsilon-acetyl)-AMC as substrate after 24 hrs.
Histone deacetylase 3, sequence (O15379 whole entry, the tested form may be a part): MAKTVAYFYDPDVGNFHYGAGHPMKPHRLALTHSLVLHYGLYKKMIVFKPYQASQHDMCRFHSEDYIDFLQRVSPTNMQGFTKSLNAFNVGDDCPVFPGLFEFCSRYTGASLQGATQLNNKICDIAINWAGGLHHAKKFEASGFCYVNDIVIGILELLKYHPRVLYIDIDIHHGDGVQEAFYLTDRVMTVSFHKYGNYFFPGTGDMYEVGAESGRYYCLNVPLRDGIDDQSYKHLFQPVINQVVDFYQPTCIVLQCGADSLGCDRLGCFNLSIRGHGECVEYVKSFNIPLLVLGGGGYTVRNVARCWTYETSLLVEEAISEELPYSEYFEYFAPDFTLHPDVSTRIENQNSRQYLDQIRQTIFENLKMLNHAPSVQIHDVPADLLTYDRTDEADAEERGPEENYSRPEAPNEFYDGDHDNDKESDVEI
The target in data set [1] is T1, Histone deacetylase (Homo sapiens) (UniProt Q13547+O15379+Q9UBN7+Q92769+Q9UQL6+Q8WUI4+Q9BY41+Q96DB2+P56524+Q9UKV0+Q969S8). The data set can be described thus: Inhibition of HDAC in human RPMI8226 cells assessed as upregulation of acetylated alpha-tubulin level after 24 hrs by Western blot analysis. The class given is cell-based. The settings on record: RPMI-8226.

In the next data set the test system is RPMI-8226. The data set can be described thus: Cytotoxicity against human RPMI8226 cells assessed as cell viability after 72 hrs by CCK8 assay. The class given is functional, cell-based. The settings on record: RPMI-8226, 72 h.
The target in data set [2] is T1, Histone deacetylase (Homo sapiens). The data set can be described thus: Inhibition of HDAC in human RPMI8226 cells assessed as upregulation of acetylated histone H3 level after 24 hrs by Western blot analysis. The class given is cell-based. The note with it: RPMI-8226.
Data set [3] has as its target T2, Protein deacetylase HDAC6 (Homo sapiens, UniProt Q9UBN7).
T2 sequence (Q9UBN7 whole entry): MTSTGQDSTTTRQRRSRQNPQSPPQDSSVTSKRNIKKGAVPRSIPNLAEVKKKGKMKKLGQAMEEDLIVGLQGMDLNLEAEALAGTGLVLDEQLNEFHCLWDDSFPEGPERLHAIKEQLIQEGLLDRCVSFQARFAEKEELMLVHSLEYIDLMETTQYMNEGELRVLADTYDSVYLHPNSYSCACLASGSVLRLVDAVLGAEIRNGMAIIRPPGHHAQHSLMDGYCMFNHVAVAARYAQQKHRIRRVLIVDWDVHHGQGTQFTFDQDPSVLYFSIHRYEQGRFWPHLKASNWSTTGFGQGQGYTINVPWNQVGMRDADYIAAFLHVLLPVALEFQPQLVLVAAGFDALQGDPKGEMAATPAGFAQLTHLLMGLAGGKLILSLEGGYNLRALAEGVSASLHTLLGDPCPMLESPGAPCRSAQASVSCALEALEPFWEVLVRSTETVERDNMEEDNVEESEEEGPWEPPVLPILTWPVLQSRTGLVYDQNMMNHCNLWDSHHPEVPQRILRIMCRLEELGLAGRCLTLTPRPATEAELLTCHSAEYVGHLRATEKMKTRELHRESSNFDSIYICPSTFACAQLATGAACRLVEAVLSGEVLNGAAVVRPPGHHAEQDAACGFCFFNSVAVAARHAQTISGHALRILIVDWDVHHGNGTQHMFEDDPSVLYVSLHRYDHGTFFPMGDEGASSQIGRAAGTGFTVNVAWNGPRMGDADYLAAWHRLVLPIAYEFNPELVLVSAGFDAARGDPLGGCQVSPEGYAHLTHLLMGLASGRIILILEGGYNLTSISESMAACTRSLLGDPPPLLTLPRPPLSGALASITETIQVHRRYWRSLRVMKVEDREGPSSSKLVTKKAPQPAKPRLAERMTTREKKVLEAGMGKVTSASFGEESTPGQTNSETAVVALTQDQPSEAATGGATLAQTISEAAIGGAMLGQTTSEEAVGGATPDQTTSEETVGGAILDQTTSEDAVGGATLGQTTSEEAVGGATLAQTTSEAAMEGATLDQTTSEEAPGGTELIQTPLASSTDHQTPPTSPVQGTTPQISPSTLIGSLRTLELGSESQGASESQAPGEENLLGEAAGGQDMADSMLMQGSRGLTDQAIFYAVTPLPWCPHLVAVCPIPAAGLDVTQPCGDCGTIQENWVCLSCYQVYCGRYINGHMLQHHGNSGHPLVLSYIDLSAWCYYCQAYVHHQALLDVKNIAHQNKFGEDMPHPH
The data set can be described thus: Inhibition of recombinant His6-tagged GST-fused human HDAC6 expressed in baculovirus infected insect High5 cells using Boc-Lys-(epsilon-acetyl)-AMC as substrate after 3 hrs.

Another data set deals with HCT-116. The data set can be described thus: Cytotoxicity against human HCT116 cells assessed as cell viability after 72 hrs by CCK8 assay. The class given is functional, cell-based. The settings on record: HCT-116, 72 h.
The test system of a further data set is HepG2. The experiment in a line: Cytotoxicity against human HepG2 cells assessed as cell viability after 72 hrs by CCK8 assay. The class given is functional, cell-based. The settings on record: HepG2, 72 h.
For data set [4], the target named is T3, hERG (KCNH2) (Homo sapiens, UniProt Q12809). The experiment in a line: Inhibition of human ERG overexpressed in CHO cells at 3 uM by Qpatch method relative to control. The settings on record: CHO cells overexpressing human ERG. In kind it is cell-based.
T3 sequence (Q12809 whole entry): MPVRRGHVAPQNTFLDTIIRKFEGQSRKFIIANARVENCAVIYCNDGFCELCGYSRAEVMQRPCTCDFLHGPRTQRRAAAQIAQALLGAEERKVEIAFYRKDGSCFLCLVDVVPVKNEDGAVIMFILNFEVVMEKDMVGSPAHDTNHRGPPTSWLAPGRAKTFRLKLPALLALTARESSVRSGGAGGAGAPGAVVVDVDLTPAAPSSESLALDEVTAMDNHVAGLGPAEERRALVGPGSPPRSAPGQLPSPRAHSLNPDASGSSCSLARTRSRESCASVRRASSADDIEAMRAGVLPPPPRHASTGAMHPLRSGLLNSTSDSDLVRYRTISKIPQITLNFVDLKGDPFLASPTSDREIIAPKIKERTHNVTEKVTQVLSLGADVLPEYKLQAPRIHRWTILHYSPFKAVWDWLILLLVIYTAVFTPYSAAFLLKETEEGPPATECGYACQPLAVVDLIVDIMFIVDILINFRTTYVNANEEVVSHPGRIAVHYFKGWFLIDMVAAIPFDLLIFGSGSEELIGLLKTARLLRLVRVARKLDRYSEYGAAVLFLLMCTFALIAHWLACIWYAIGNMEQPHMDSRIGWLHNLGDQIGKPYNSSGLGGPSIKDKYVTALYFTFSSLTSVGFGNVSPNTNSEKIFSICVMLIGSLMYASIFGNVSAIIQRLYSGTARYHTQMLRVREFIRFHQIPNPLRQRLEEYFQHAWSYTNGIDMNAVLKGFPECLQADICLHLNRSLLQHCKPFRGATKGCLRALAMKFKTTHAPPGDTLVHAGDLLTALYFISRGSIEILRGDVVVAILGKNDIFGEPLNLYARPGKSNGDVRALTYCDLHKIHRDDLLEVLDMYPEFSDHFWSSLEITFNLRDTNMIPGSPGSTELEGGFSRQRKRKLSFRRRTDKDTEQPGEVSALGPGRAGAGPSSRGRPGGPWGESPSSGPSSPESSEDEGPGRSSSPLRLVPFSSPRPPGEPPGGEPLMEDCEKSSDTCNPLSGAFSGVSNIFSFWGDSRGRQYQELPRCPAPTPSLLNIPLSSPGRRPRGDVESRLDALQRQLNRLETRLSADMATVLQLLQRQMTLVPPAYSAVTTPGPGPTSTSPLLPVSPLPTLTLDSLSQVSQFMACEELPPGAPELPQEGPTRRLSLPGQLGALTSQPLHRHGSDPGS
Data set [5] concerns the target Voltage-gated inwardly rectifying potassium channel KCNH2 (Homo sapiens, UniProt Q12809). The experiment in a line: Inhibition of human ERG overexpressed in CHO cells by Qpatch method. The class given is cell-based.
The target in data set [6] is T3, hERG (KCNH2). The data set can be described thus: Inhibition of human ERG overexpressed in CHO cells at 40 uM by Qpatch method relative to control. In kind it is cell-based. The note with it: CHO cells overexpressing human ERG.

pIC50: −log10 of the molar value. A value given as a limit tells only on which side of the number the result lay.

Voltage-gated inwardly rectifying potassium channel KCNH2, sequence (Q12809 whole entry): as above

Consider `O=C(CCCCCCC(=O)Nc1ccc2ccnc(Nc3cccc(Cl)c3F)c2c1)NO`, for which the pIC50 at Histone deacetylase 1 was 7.76; at Histone deacetylase 3, 7.67; in the data set on RPMI-8226, 6.14; in [3], 8.10. Besides, the inhibition result in [1] and in data set [2] was “Dose-dependent effect” in each case.
With `Cc1ccc(Nc2nccc3ccc(NC(=O)CCCCCCC(=O)NO)cc23)c(Cl)c1`, the pIC50 was 7.71 at Histone deacetylase 1; 7.67 at Histone deacetylase 3; 6.77 in the data set with HCT-116; 6.28 in the data set with RPMI-8226; 5.00 in the data set on HepG2; 7.52 in data set [3].
The compound `COc1cc(N)c(Cl)cc1C(=O)NC1CCN(CCCOc2ccc(F)cc2)CC1OC` (stereo not drawn) [CISAPRIDE] gave an inhibition at 3 µM against hERG (KCNH2) [4] of 98.7%.
For the compound `Cc1ccc(Nc2nccc3ccc(NC(=O)CCCCCCC(=O)NO)cc23)cc1`, the pIC50 is 8.38 at Histone deacetylase 1, 8.40 on Histone deacetylase 3, 6.11 in the data set on RPMI-8226 and 8.42 in [3].
For `Cc1ccc(Nc2nccc3ccc(NCc4ccc(C(=O)NO)cc4)cc23)cc1` the same measures were 6.49, 6.58, less than 4.70 and 6.45.
In the case of `Cc1ccc(Nc2nccc3ccc(NC(=O)CCCCCCC(=O)NO)cc23)c(Br)c1`, the pIC50 on Histone deacetylase 1 was 7.81; on Histone deacetylase 3 it was 7.75; with HCT-116, 6.59; in the data set on RPMI-8226, 6.33; in the data set with HepG2, 5.07; in data set [3], 8.20.
As for `O=C(COc1ccc(C(=O)NO)cc1)Nc1ccc2ccnc(Nc3ccc4ccccc4c3)c2c1`, the pIC50 on Histone deacetylase 1 was 6.57; at Histone deacetylase 3 it was 6.56; in the data set with RPMI-8226, 5.14; in [3], 6.26.
Taken in the same sequence, the figures for `COCCCNc1nccc2ccc(NC(=O)CCCCCCC(=O)NO)cc12` were 7.55, 7.86, 5.57 and 7.87.
As to `CCCCn1ccc2ccc(NC(=O)CCCCCCC(=O)NO)cc2c1=O`, the pIC50 is 7.18 on Histone deacetylase 1; 7.04 on Histone deacetylase 3; 5.76 with HCT-116; 5.73 in the data set with RPMI-8226; 4.73 in the data set on HepG2; 7.49 in data set [3].
As for `CC(C)CCn1ccc2ccc(NC(=O)CCCCCCC(=O)NO)cc2c1=O`, the pIC50 is 7.18 on Histone deacetylase 1, 7.16 on Histone deacetylase 3, 5.74 in the data set with RPMI-8226 and 7.27 in data set [3].
Taken in the same sequence, the figures for `O=C(CCCCCCC(=O)Nc1ccc2ccnc(Nc3ccccc3F)c2c1)NO` were 7.75, 7.72, 6.03 and 7.96.
Taken in the same sequence, the figures for `COc1ccc(Cn2ccc3ccc(NC(=O)CCCCCCC(=O)NO)cc3c2=O)c(OC)c1` were 7.01, 6.97, 5.58 and 7.00.
For `CCN(CC)CCn1ccc2ccc(NC(=O)CCCCCCC(=O)NO)cc2c1=O` the same measures were 7.16, 7.13, 5.67 and 7.41.
For the compound `Cc1ccc(Nc2nccc3ccc(NCc4ccc(/C=C/C(=O)NO)cc4)cc23)cc1`, the pIC50 at Histone deacetylase 1 was 6.69; on Histone deacetylase 3 it was 6.75; in the data set on RPMI-8226, 5.69; in data set [3], 7.23.
For `Cc1ccc(Nc2nccc3ccc(NCc4ccc(/C=C/C(=O)NO)cc4)cc23)c(Br)c1` the same measures were 6.36, 6.20, 5.28 and 6.52.
Taken in the same sequence, the figures for `Cc1ccc(Nc2nccc3ccc(NCc4ccc(/C=C/C(=O)NO)cc4)cc23)c(Cl)c1` were 6.24, 6.32, 5.57 and 6.54.
For `CC(C)N1CCN(c2nccc3ccc(NC(=O)CCCCCCC(=O)NO)cc23)CC1` the same measures were 7.38, 7.44, 5.87 and 7.60.
Consider `O=C(CCCCCCC(=O)Nc1ccc2ccnc(Nc3ccc4ccccc4c3)c2c1)NO`, for which the pIC50 at Histone deacetylase 1 was 8.24; at Histone deacetylase 3 it was 8.27; with RPMI-8226 it was 6.13; in [5], less than 4.40; in data set [3], 8.29. For the same compound, the inhibition at 40 µM against hERG (KCNH2) [6] was 17.5%.
Take `O=C(CCCCCCC(=O)Nc1ccc2ccnc(N3CCOCC3)c2c1)NO`: the pIC50 was 7.34 at Histone deacetylase 1; 7.39 on Histone deacetylase 3; 6.55 with HCT-116; 5.88 in the data set on RPMI-8226; 4.85 in the data set with HepG2; 7.53 in data set [3].
As for `COCCN(CCOC)c1nccc2ccc(NC(=O)CCCCCCC(=O)NO)cc12`, the pIC50 at Histone deacetylase 1 was 6.58; on Histone deacetylase 3, 6.72; in the data set with RPMI-8226 it was 5.11; in data set [3] it was 6.83.
With `Cc1ccc(Nc2nccc3ccc(NC(=O)CCCCCCC(=O)NO)cc23)c(F)c1`, the negative logarithm of the IC50 (pIC50) on Histone deacetylase 1 is 7.45; at Histone deacetylase 3 it was 7.40; in the data set on RPMI-8226, 5.69; in data set [3], 7.39.
With `O=C(CCCCCCC(=O)Nc1ccc2ccnc(Nc3ccc(Br)cc3F)c2c1)NO`, the pIC50 was 7.81 at Histone deacetylase 1; 7.78 at Histone deacetylase 3; 6.72 in the data set on HCT-116; 6.34 in the data set with RPMI-8226; 5.23 with HepG2; less than 4.40 in [5]. Also, the negative-log IC50 (pIC50) in data set [3] was 8.17. In addition, the inhibition result in [1] and in data set [2] was “Dose-dependent effect” each time. The inhibition at 40 µM on hERG (KCNH2) [6] is 43.7%.
